The source of these data is patent US7491819B1 (priority 2004, dated 2009).

The target in this experiment is T1, HIV-integrase (Human immunodeficiency virus type 1 group M subtype B, UniProt P12497).
T1 construct: Recombinant integrase (0.26 ng) was incubated with the beads
The experiment can be described thus: HIV-Integrase Inhibition Activity (SPA bead strand-transfer assay). The experiment is classed as biochemical. To be noted: Table 1; read-out: Activity (HIV-integrase inhibition, IC50 class). The essentials: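 Strand-transfer read-out: CPM from P33-labelled target DNA (0.1 fmol) joined to bead-bound biotin substrate DNA (5 pmole), with EDTA stop at 10 mM final. Integrase (0.26 ng) prebound to streptavidin SPA beads 90 min, 37° C, and washed before adding inhibitor.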
A word on the IC50: it is the midpoint of a concentration-inhibition curve. Regarding `CC1(C)OCCn2c1nc(C(=O)NCc1ccccc1N1CCCCS1(=O)=O)c(O)c2=O` [Example 215, Pyrimido[2,1-c][1,4]oxazine-2-carboxamide, 4,6,7,9-tetrahydro-3-hydroxy-9,9-dimethyl-4-oxo-N-[[2-(tetrahydro-1,1-dioxido-2H-1,2-thiazin-2-yl)phenyl]methyl]-], the half-inhibitory concentration (IC50) is 0.002 to 0.1 µM.
In the case of `CC1(C)OCCn2c1nc(C(=O)NCc1cccc(-n3cccn3)c1)c(O)c2=O` [Example 252, Pyrimido[2,1-c][1,4]oxazine-2-carboxamide, 4,6,7,9-tetrahydro-3-hydroxy-9,9-dimethyl-4-oxo-N-[[3-(1H-pyrazol-1-yl)phenyl]methyl]-], the IC50 was 0.1 to 1 µM.
For the compound `CC1(C)OCCn2c1nc(C(=O)NCc1ccc(N3CCOCC3)cc1F)c(O)c2=O` [Example 24, Pyrimido[2,1-c][1,4]oxazine-2-carboxamide, N-[[2-fluoro-4-(4-morpholinyl)phenyl]methyl]-4,6,7,9-tetrahydro-3-hydroxy-9,9-dimethyl-4-oxo-], the IC50 was in the range of 0.1 to 1 µM.
In the case of `C#Cc1cc(F)ccc1CNC(=O)c1nc2n(c(=O)c1O)CCOC2(C)C` [Example 88, Pyrimido[2,1-c][1,4]oxazine-2-carboxamide, N-[(2-ethynyl-4-fluorophenyl)methyl]-4,6,7,9-tetrahydro-3-hydroxy-9,9-dimethyl-4-oxo-], the IC50 lay in the range of 0.002 to 0.1 µM.
`CC1(C)OCCn2c1nc(C(=O)NCc1ccccc1S(C)(=O)=O)c(O)c2=O` [Example 114, Pyrimido[2,1-c][1,4]oxazine-2-carboxamide, 4,6,7,9-tetrahydro-3-hydroxy-9,9-dimethyl-N-[[2-(methylsulfonyl)phenyl]methyl]-4-oxo-]: the IC50 is 0.002 to 0.1 µM.
Take `CC1(C)OCCn2c1nc(C(=O)NCc1ccccc1-c1cccc3cccnc13)c(O)c2=O` [Example 148, Pyrimido[2,1-c][1,4]oxazine-2-carboxamide, 4,6,7,9-tetrahydro-3-hydroxy-9,9-dimethyl-4-oxo-N-[[2-(8-quinolinyl)phenyl]methyl]-]: the IC50 fell in the range of 0.1 to 1 µM.
The value for `CC1(C)OCCn2c1nc(C(=O)NCc1cc(F)cc(C(F)(F)F)c1)c(O)c2=O` [Example 237, Pyrimido[2,1-c][1,4]oxazine-2-carboxamide, N-[[3-fluoro-5-(trifluoromethyl)phenyl]methyl]-4,6,7,9-tetrahydro-3-hydroxy-9,9-dimethyl-4-oxo-] was 0.002 to 0.1 µM; that for `COc1ccc(CNC(=O)c2nc3n(c(=O)c2O)CCOC3(C)C)cc1Cl` [Example 239, Pyrimido[2,1-c][1,4]oxazine-2-carboxamide, N-[(3-chloro-4-methoxyphenyl)methyl]-4,6,7,9-tetrahydro-3-hydroxy-9,9-dimethyl-4-oxo-] was 0.002 to 0.1 µM.
As for `CC1(C)OCCn2c1nc(C(=O)NCc1ccc(F)cc1-n1cnc(C(=O)O)n1)c(O)c2=O` [Example 61, 1H-1,2,4-Triazole-3-carboxylic acid, 1-[5-fluoro-2-[[[(4,6,7,9-tetrahydro-3-hydroxy-9,9-dimethyl-4-oxopyrimido[2,1-c][1,4]oxazin-2-yl)carbonyl]amino]methyl]phenyl]-], the IC50 lay within 0.002 to 0.1 µM.
In the case of `Cn1nnnc1-c1cc(F)ccc1CNC(=O)c1nc2n(c(=O)c1O)CCOC2(C)C` [Example 107, Pyrimido[2,1-c][1,4]oxazine-2-carboxamide, N-[[4-fluoro-2-(1-methyl-1H-tetrazol-5-yl)phenyl]methyl]-4,6,7,9-tetrahydro-3-hydroxy-9,9-dimethyl-4-oxo-], the IC50 fell in the range of 0.002 to 0.1 µM.
With `CC1(C)OCCn2c1nc(C(=O)NCc1ccc(F)cc1C#CCOS(C)(=O)=O)c(O)c2=O` [Example 90, Pyrimido[2,1-c][1,4]oxazine-2-carboxamide, N-[[4-fluoro-2-[3-[(methylsulfonyl)oxy]-1-propynyl]phenyl]methyl]-4,6,7,9-tetrahydro-3-hydroxy-9,9-dimethyl-4-oxo-], the IC50 was in the range of 0.002 to 0.1 µM.
With `CC1(C)OCCn2c1nc(C(=O)NCc1ccccc1N1CCOC1=O)c(O)c2=O` [Example 122, Pyrimido[2,1-c][1,4]oxazine-2-carboxamide, 4,6,7,9-tetrahydro-3-hydroxy-9,9-dimethyl-4-oxo-N-[[2-(2-oxo-3-oxazolidinyl)phenyl]methyl]-], the IC50 lay in the range of 0.002 to 0.1 µM.
`Cc1cc(-c2ccccc2CNC(=O)c2nc3n(c(=O)c2O)CCOC3(C)C)cnc1F` [Example 192, Pyrimido[2,1-c][1,4]oxazine-2-carboxamide, N-[[2-(6-fluoro-5-methyl-3-pyridinyl)phenyl]methyl]-4,6,7,9-tetrahydro-3-hydroxy-9,9-dimethyl-4-oxo-]: the IC50 lay in the range of 0.002 to 0.1 µM.
For the compound `CC1(C)OCCn2c1nc(C(=O)NCc1ccc(F)cc1S(=O)(=O)N1CCC1)c(O)c2=O` [Example 111, Pyrimido[2,1-c][1,4]oxazine-2-carboxamide, N-[[2-(1-azetidinylsulfonyl)-4-fluorophenyl]methyl]-4,6,7,9-tetrahydro-3-hydroxy-9,9-dimethyl-4-oxo-], the IC50 lay in the range of 0.002 to 0.1 µM.
Consider `CN1CCN(C(=O)c2ncn(-c3cc(F)ccc3CNC(=O)c3nc4n(c(=O)c3O)CCOC4(C)C)n2)CC1` [Example 69, Pyrimido[2,1-c][1,4]oxazine-2-carboxamide, N-[[4-fluoro-2-[3-[(4-methyl-1-piperazinyl)carbonyl]-1H-1,2,4-triazol-1-yl]phenyl]methyl]-4,6,7,9-tetrahydro-3-hydroxy-9,9-dimethyl-4-oxo-], for which the IC50 fell in the range of 0.002 to 0.1 µM.
Turning to `CC1(C)OCCn2c1nc(C(=O)NCc1ccc(F)cc1N1C(=O)CC[C@@H]1CN=[N+]=[N-])c(O)c2=O` [Example 132, (R)—N-(2-(2-(Azidomethyl)-5-oxopyrrolidin-1-yl)-4-fluorobenzyl)-3-hydroxy-9,9-dimethyl-4-oxo-4,6,7,9-tetrahydropyrimido[2,1-c][1,4]oxazine-2-carboxamide], the IC50 was 0.002 to 0.1 µM.
Turning to `CN(C)Cc1ccc(-c2ccccc2CNC(=O)c2nc3n(c(=O)c2O)CCOC3(C)C)cc1` [Example 178, Pyrimido[2,1-c][1,4]oxazine-2-carboxamide, N-[[4′-[(dimethylamino)methyl][1,1′-biphenyl]-2-yl]methyl]-4,6,7,9-tetrahydro-3-hydroxy-9,9-dimethyl-4-oxo-], the IC50 lay in the range of 0.002 to 0.1 µM.
For the compound `CC1(C)OCCn2c1nc(C(=O)NCc1cccc3c1NC(=O)C3)c(O)c2=O` [Example 94], the IC50 lay within 0.002 to 0.1 µM.
`COc1cccc(CNC(=O)c2nc3n(c(=O)c2O)CCOC3(C)C)c1OC` [Example 229, Pyrimido[2,1-c][1,4]oxazine-2-carboxamide, N-[(2,3-dimethoxyphenyl)methyl]-4,6,7,9-tetrahydro-3-hydroxy-9,9-dimethyl-4-oxo-]: the IC50 is 0.002 to 0.1 µM.
The value for `CC1(C)OCCn2c1nc(C(=O)NCc1ccc(F)cc1N1CCC1=O)c(O)c2=O` [Example 126, N-(4-Fluoro-2-(2-oxoazetidin-1-yl)benzyl)-3-hydroxy-9,9-dimethyl-4-oxo-4,6,7,9-tetrahydropyrimido[2,1-c][1,4]oxazine-2-carboxamide] was 0.002 to 0.1 µM; that for `CC1(C)OCCn2c1nc(C(=O)NCc1cccc(F)c1)c(O)c2=O` [Example 220, Pyrimido[2,1-c][1,4]oxazine-2-carboxamide, N-[(3-fluorophenyl)methyl]-4,6,7,9-tetrahydro-3-hydroxy-9,9-dimethyl-4-oxo-] was 0.002 to 0.1 µM; that for `CS(=O)(=O)CCC1OCCn2c1nc(C(=O)NCc1ccc(F)cc1)c(O)c2=O` (centres unmarked) [Example 209, Pyrimido[2,1-c][1,4]oxazine-2-carboxamide, N-[(4-fluorophenyl)methyl]-4,6,7,9-tetrahydro-3-hydroxy-9-[2-(methylsulfonyl)ethyl]-4-oxo-] was 0.002 to 0.1 µM.
Take `CC1(C)OCCn2c1nc(C(=O)NCc1ccc3c(c1)OCCO3)c(O)c2=O` [Example 230, Pyrimido[2,1-c][1,4]oxazine-2-carboxamide, N-[(2,3-dihydro-1,4-benzodioxin-6-yl)methyl]-4,6,7,9-tetrahydro-3-hydroxy-9,9-dimethyl-4-oxo-]: the IC50 is 0.002 to 0.1 µM.
The value for `Cc1ccc(F)c(CNC(=O)c2nc3n(c(=O)c2O)CCOC3(C)C)c1Cl` [Example 278, Pyrimido[2,1-c][1,4]oxazine-2-carboxamide, N-[(2-chloro-6-fluoro-3-methylphenyl)methyl]-4,6,7,9-tetrahydro-3-hydroxy-9,9-dimethyl-4-oxo-] was 0.002 to 0.1 µM; that for `CC1(C)OCCn2c1nc(C(=O)NCc1ccccc1-c1cccc3ncccc13)c(O)c2=O` [Example 197, Pyrimido[2,1-c][1,4]oxazine-2-carboxamide, 4,6,7,9-tetrahydro-3-hydroxy-9,9-dimethyl-4-oxo-N-[[2-(5-quinolinyl)phenyl]methyl]-] was 0.002 to 0.1 µM.
As for `CC1(C)OCCn2c1nc(C(=O)NCc1ccc(Cl)cc1F)c(O)c2=O` [Example 277, Pyrimido[2,1-c][1,4]oxazine-2-carboxamide, N-[(4-chloro-2-fluorophenyl)methyl]-4,6,7,9-tetrahydro-3-hydroxy-9,9-dimethyl-4-oxo-], the IC50 was 0.002 to 0.1 µM.
As for `CC1(C)OCCn2c1nc(C(=O)NCc1ccc(F)cc1I)c(O)c2=O` [Example 73, Pyrimido[2,1-c][1,4]oxazine-2-carboxamide, N-[(4-fluoro-2-iodophenyl)methyl]-4,6,7,9-tetrahydro-3-hydroxy-9,9-dimethyl-4-oxo-], the IC50 lay in the range of 0.002 to 0.1 µM.
The value for `CN(C)C(=O)c1ncn(-c2cc(F)ccc2CNC(=O)c2nc3n(c(=O)c2O)CCOC3(C)C)n1` [Example 63, Pyrimido[2,1-c][1,4]oxazine-2-carboxamide, N-[[2-[3-[(dimethylamino)carbonyl]-1H-1,2,4-triazol-1-yl]-4-fluorophenyl]methyl]-4,6,7,9-tetrahydro-3-hydroxy-9,9-dimethyl-4-oxo-] was 0.002 to 0.1 µM.
Next, `CC1(C)OCCn2c1nc(C(=O)NCc1ccc(F)cc1C#CCS(C)(=O)=O)c(O)c2=O` [Example 92, Pyrimido[2,1-c][1,4]oxazine-2-carboxamide, N-[[4-fluoro-2-[3-(methylsulfonyl)-1-propynyl]phenyl]methyl]-4,6,7,9-tetrahydro-3-hydroxy-9,9-dimethyl-4-oxo-]: 0.002 to 0.1 µM.
